Results: patent US20100029755A1, “P-Glycoprotein inhibitor comprising octilonium bromide as an effective ingredient” (priority 2002, published 2010)
Read-outs that look alike come from different tables or passages of the source.

Key:
p-glycoprotein [1] = conditions: SD, rat, 1 h, pH 6.4
[2] = administered orally; cited from earlier work
p-glycoprotein [3] = conditions: SD, rat, 1 h, 10 μg/ml, pH 6.4

| SMILES | absorbed amount of the doxorubicin (p-glycoprotein [1]; 50 μg/ml) | absorbed doxorubicin as % of the total applied amount (p-glycoprotein [1]; 50 μg/ml) | fraction of octylonium bromide absorbed systemically [2] | fraction of octylonium bromide remaining in the gastrointestinal tract [2] | absorbed amount of the doxorubicin (p-glycoprotein [1]; 200 μg/ml) | absorbed doxorubicin as % of the total applied amount (p-glycoprotein [1]; 200 μg/ml) | increase of the amount of absorbed doxorubicin by octylonium bromide (p-glycoprotein [1]; 200 μg/ml) | absorbed rhodamine 123 as % of the total applied amount (p-glycoprotein [3]) | amount of the absorbed rhodamine 123 (p-glycoprotein [3]) | increase of the amount of absorbed rhodamine by octylonium bromide (p-glycoprotein [3]) |
| --- | --- | --- | --- | --- | --- | --- | --- | --- | --- | --- |
| COc1cccc2c1C(=O)c1c(O)c3c(c(O)c1C2=O)C[C@@](O)(C(=O)CO)C[C@@H]3O[C@H]1C[C@H](N)[C@H](O)[C@H](C)O1 [doxorubicin] | 0.4 μg/g tissue | 0.12% | – | – | – | – | – | – | – | – |
| CCCCCCCCOc1ccccc1C(=O)Nc1ccc(C(=O)OCC[N+](C)(CC)CC)cc1 [octylonium bromide] | – | – | 5% | 95% | 11 μg/g tissue | 3.3% | 28 folds | 14.5% | 4.3 μg/g tissue | 4.5 folds |
